Results from patent publication US6821995B1, “Method of treating batten disease” (priority 1999, dated 2004).
Where “and” joins values, the source holds several entries; their conditions need not be identical. Equal entries are not always repeated.

Experiments:
[1] = tested on: cells derived from late infantile Batten disease (LINCL or CLN2 deficient); assay: JC-1 mitochondrial membrane potential assay of etoposide-induced apoptosis, LINCL cells; assay type: cell-based, human; conditions: for percentage of cells showing J-aggregates: two patient cell lines, JC-1 stain
Procedure: (§1) Batten disease-derived cell lines were tested for their susceptibility to apoptosis induced by etoposide and whether flupirtine had any protective effect against apoptosis. Cells derived from infantile Batten disease (INCL or CLN1 deficient), cells derived from late infantile Batten disease (LINCL or CLN2 deficient), and cells derived from juvenile Batten disease (JNCL or CLN3 deficient) received an 18 hour incubation in 30 μM etoposide with and without a pre-treatment with 20 μM flupirtine. As a control, cells were also left untreated. Cells were then stained with JC-1 fluorescent stain, which is a mitochondrial membrane potential-sensitive dye. When cells are alive, the mitochondrial potential is maintained and the mitochondria appear green. At the commitment point of apoptosis, proapoptotic agents like etopside cause a drop in mitochondrial membrane potential and the mitochondria appear yellow-red due to the formation of J-aggregates.
(§2) Cell counts were conducted for to determine the percentage of cells showing J-aggregates (TABLE 1).
(§3) The numbers of cells showing J-aggregates indicates the number of cells that are apoptosis-ready but are still viable.

[2] = tested on: cells derived from infantile Batten disease (INCL or CLN1 deficient); assay: JC-1 mitochondrial membrane potential assay of etoposide-induced apoptosis, INCL cells; assay type: cell-based, human; conditions: for percentage of cells showing J-aggregates: two patient cell lines, JC-1 stain
Procedure: as §1, §2, §3

[3] = tested on: cells derived from juvenile Batten disease (JNCL or CLN3 deficient); assay: JC-1 mitochondrial membrane potential assay of etoposide-induced apoptosis, JNCL cells; assay type: cell-based, human
Procedure: as §1, §2, §3

[4] = adults and children, chronically for over 12 months; cited from earlier work
[5] = tested on: retinal pigment epithelial cells and neuronal cells in culture; conditions: cited from earlier work
[6] = tested on: hNT neurons (human post-mitotic, fully-differentiated neurons); assay: Etoposide-induced apoptosis in differentiated hNT neurons; assay type: cell-based; conditions: pre-treatment with 10 μM flupirtine, 20 μM etoposide 18 hour (FIG. 5)
Procedure: Cells were visualized by fluorescent microscopy.
Finally, human post-mitotic neuronal cells were tested for thier response to flupirtine and etoposide-induced apoptosis. NT2 cells were treated with retinoic acid, then mitotic inhibitors for 6 weeks to become hNT neurons that were fully differentiated. Next, the hNT neurons received an 18 hour incubation in 20 μM etoposide with and without a pre-treatment with 10 μM flupirtine.

stroke in rats = conditions: rats pretreated with flupirtine; cited from earlier work
[7] = tested on: Costa Rican Batten disease-derived fibroblasts (CLN6 deficient); assay: Protection against etoposide-induced apoptosis, Costa Rican Batten disease cells; assay type: cell-based, human; conditions: pretreatment with flupirtine (FIG. 4)
Procedure: Graph represents number of living cells after treatments indicated.
Cells derived from Costa Rican Batten disease (CLN6 deficient) were also tested for their response to etoposide. The CLN6 gene remains uncharacterized, though linked to chromosome 15.

[8] = 30 μM etoposide alone, 18 hour incubation
[9] = pre-treatment with 20 μM flupirtine, then 30 μM etoposide 18 hour

Row | SMILES | yellow-red J-aggregates seen by fluorescent microscopy ([1]; etoposide alone (FIG. 3B)) | percentage of cells showing J-aggregates [1, 8] | yellow-red J-aggregates seen by fluorescent microscopy ([2]; etoposide alone (FIG. 3A)) | percentage of cells showing J-aggregates [2, 8] | yellow-red J-aggregates seen by fluorescent microscopy ([3]; etoposide alone (FIG. 3C)) | percentage of cells showing J-aggregates ([3]; two patient cell lines, 30 μM etoposide alone, 18 hour incubation, JC-1 stain) | tolerability in chronic use [4] | effect on apoptosis [5] | protection afforded by Flupirtine ([1]; J-aggregate counts, etoposide vs etoposide + flupirtine) | yellow-red J-aggregates seen by fluorescent microscopy ([1]; flupirtine pretreated, then etoposide (FIG. 3B)) | percentage of cells showing J-aggregates [1, 9] | effect on etoposide-induced apoptosis [6] | yellow-red J-aggregates seen by fluorescent microscopy ([2]; flupirtine pretreated, then etoposide (FIG. 3A)) | percentage of cells showing J-aggregates [2, 9] | area of ischemia induced by stroke (stroke in rats) | yellow-red J-aggregates seen by fluorescent microscopy ([3]; flupirtine pretreated, then etoposide (FIG. 3C)) | protection from etoposide-induced apoptosis (number of living cells) [7]
1 | COc1cc([C@@H]2c3cc4c(cc3[C@@H](O[C@@H]3O[C@@H]5CO[C@@H](C)O[C@H]5[C@H](O)[C@H]3O)[C@H]3COC(=O)[C@H]23)OCO4)cc(OC)c1O [Etoposide] | many yellow-red aggregates | 100% and 96% | many yellow-red aggregates | 61% and 51% | many yellow-red aggregates | 58.4% and 64% | – | – | – | – | – | – | – | – | – | – | –
2 | CCOC(=O)Nc1ccc(NCc2ccc(F)cc2)nc1N [Flupirtine, 2-amino-3-ethoxycarbonylamino-6-(p-fluorobenzylamino)-pyridine] | – | – | – | – | – | – | without undue side effect or addiction | counteract apoptosis | almost complete | no aggregates | 0% and 1.8% | completely blocked etoposide-induced apoptosis | no aggregates | 6.7% and 10.8% | reduce the area of ischemia | no aggregates | protected from etoposide-induced apoptosis
